Legend:
Type in all cases: functional
SNB-19 = assay: Growth inhibition of human SNB19 cells after 48 hrs by SRB assay; conditions: SNB-19, 48 h
HL-60(TB) = assay: Growth inhibition of human HL-60(TB) cells after 48 hrs by SRB assay; conditions: HL-60, 48 h
RXF 393 = assay: Growth inhibition of human […] cells after 48 hrs by SRB assay; conditions: RXF 393, 48 h
UO-31 = assay: Growth inhibition of human UO31 cells after 48 hrs by SRB assay; conditions: UO-31, 48 h
786-0 = assay: Growth inhibition of human 786-0 cells after 48 hrs by SRB assay; conditions: 786-0, 48 h
SK-OV-3 = assay: Growth inhibition of human SKOV3 cells after 48 hrs by SRB assay; conditions: SK-OV-3, 48 h
NCI/ADR-RES = assay: Growth inhibition of human NCI/ADR-RES cells after 48 hrs by SRB assay
OVCAR-3 = assay: Growth inhibition of human OVCAR-3 cells after 48 hrs by SRB assay; conditions: OVCAR-3, 48 h
CAKI-1 = assay: Growth inhibition of human Caki1 cells after 48 hrs by SRB assay; conditions: CAKI-1, 48 h
HCT-15 = assay: Growth inhibition of human HCT15 cells after 48 hrs by SRB assay; conditions: HCT-15, 48 h
SR = assay: Growth inhibition of human SR cells after 48 hrs by SRB assay
ACHN = assay: Growth inhibition of human ACHN cells after 48 hrs by SRB assay
NCI-H23 = assay: Growth inhibition of human NCI-H23 cells after 48 hrs by SRB assay; conditions: NCI-H23, 48 h
U-251 = assay: Growth inhibition of human U251 cells after 48 hrs by SRB assay; conditions: U-251, 48 h
SK-MEL-2 = assay: Growth inhibition of human SK-MEL-2 cells after 48 hrs by SRB assay; conditions: SK-MEL-2, 48 h
KM12 = assay: Growth inhibition of human KM12 cells after 48 hrs by SRB assay; conditions: KM12, 48 h
EKVX = assay: Growth inhibition of human EKVX cells after 48 hrs by SRB assay
SK-MEL-28 = assay: Growth inhibition of human SK-MEL-28 cells after 48 hrs by SRB assay; conditions: SK-MEL-28, 48 h
HOP-92 = assay: Growth inhibition of human HOP92 cells after 48 hrs by SRB assay; conditions: HOP-92, 48 h
OVCAR-4 = assay: Growth inhibition of human OVCAR4 cells after 48 hrs by SRB assay; conditions: OVCAR-4, 48 h
RPMI-8226 = assay: Growth inhibition of human RPMI8226 cells after 48 hrs by SRB assay; conditions: RPMI-8226, 48 h
SN12C = assay: Growth inhibition of human SN12C cells after 48 hrs by SRB assay
BT-549 = assay: Growth inhibition of human BT549 cells after 48 hrs by SRB assay; conditions: BT-549, 48 h
PC-3 = assay: Growth inhibition of human PC3 cells after 48 hrs by SRB assay; conditions: PC-3, 48 h
NCI-H322M = assay: Growth inhibition of human NCI-H322M cells after 48 hrs by SRB assay
SK-MEL-5 = assay: Growth inhibition of human SK-MEL-5 cells after 48 hrs by SRB assay; conditions: SK-MEL-5, 48 h
COLO 205 = assay: Growth inhibition of human COLO205 cells after 48 hrs by SRB assay; conditions: COLO 205, 48 h
M14 = assay: Growth inhibition of human M14 cells after 48 hrs by SRB assay; conditions: M14, 48 h
TK-10 = assay: Growth inhibition of human TK10 cells after 48 hrs by SRB assay; conditions: TK-10, 48 h
UACC-257 = assay: Growth inhibition of human UACC257 cells after 48 hrs by SRB assay; conditions: UACC-257, 48 h
DU-145 = assay: Growth inhibition of human DU145 cells after 48 hrs by SRB assay; conditions: DU-145, 48 h
SF-295 = assay: Growth inhibition of human SF295 cells after 48 hrs by SRB assay; conditions: SF-295, 48 h
A498 = assay: Growth inhibition of human A498 cells after 48 hrs by SRB assay; conditions: A498, 48 h
HT-29 = assay: Growth inhibition of human HT-29 cells after 48 hrs by SRB assay; conditions: HT-29, 48 h
Malme-3M = assay: Growth inhibition of human MALME-3M cells after 48 hrs by SRB assay
OVCAR-5 = assay: Growth inhibition of human OVCAR5 cells after 48 hrs by SRB assay; conditions: OVCAR-5, 48 h
A549 = assay: Growth inhibition of human A549 cells after 48 hrs by SRB assay; conditions: A549, 48 h
MDA-MB-231 = assay: Growth inhibition of human MDA-MB-231 cells after 48 hrs by SRB assay; conditions: MDA-MB-231, 48 h
MOLT-4 = assay: Growth inhibition of human MOLT4 cells after 48 hrs by SRB assay; conditions: MOLT-4, 48 h
NCI-H460 = assay: Growth inhibition of human NCI-H460 cells after 48 hrs by SRB assay; conditions: NCI-H460, 48 h
NCI-H226 = assay: Growth inhibition of human NCI-H226 cells after 48 hrs by SRB assay; conditions: NCI-H226, 48 h
SW-620 = assay: Growth inhibition of human SW620 cells after 48 hrs by SRB assay; conditions: SW-620, 48 h
LOX IMVI = assay: Growth inhibition of human LOXIMVI cells after 48 hrs by SRB assay
MCF7 = assay: Growth inhibition of human MCF7 cells after 48 hrs by SRB assay; conditions: MCF7, 48 h
HOP-62 = assay: Growth inhibition of human HOP62 cells after 48 hrs by SRB assay; conditions: HOP-62, 48 h
SF-539 = assay: Growth inhibition of human SF539 cells after 48 hrs by SRB assay; conditions: SF-539, 48 h
MDA-MB-435 = assay: Growth inhibition of human MDA-MB-435 cells after 48 hrs by SRB assay; conditions: MDA-MB-435, 48 h
[1] = Growth inhibition of human Hs 578T cells after 48 hrs by SRB assay
T47D = assay: Growth inhibition of human T47D cells after 48 hrs by SRB assay
IGROV-1 = assay: Growth inhibition of human IGROV1 cells after 48 hrs by SRB assay; conditions: IGROV-1, 48 h
K562 = assay: Growth inhibition of human K562 cells after 48 hrs by SRB assay; conditions: K562, 48 h
OVCAR-8 = assay: Growth inhibition of human OVCAR8 cells after 48 hrs by SRB assay; conditions: OVCAR-8, 48 h
SF-268 = assay: Growth inhibition of human SF268 cells after 48 hrs by SRB assay; conditions: SF-268, 48 h
HCT-116 = assay: Growth inhibition of human HCT116 cells after 48 hrs by SRB assay; conditions: HCT-116, 48 h
NCI-H522 = assay: Growth inhibition of human NCI-H522 cells after 48 hrs by SRB assay; conditions: NCI-H522, 48 h
UACC-62 = assay: Growth inhibition of human UACC62 cells after 48 hrs by SRB assay; conditions: UACC-62, 48 h
HCC 2998 = assay: Growth inhibition of human HCC2998 cells after 48 hrs by SRB assay; conditions: HCC 2998, 48 h
SNB-75 = assay: Growth inhibition of human SNB75 cells after 48 hrs by SRB assay; conditions: SNB-75, 48 h

Compound: Nc1nn(C(=O)Nc2c(F)cccc2F)c2ccccc12
- GI50 (SNB-19): < 100 µM
- GI50 (HL-60(TB)): 33.2 µM
- GI50 (RXF 393): 20.2 µM
- GI50 (UO-31): 18.6 µM
- GI50 (786-0): < 100 µM
- GI50 (SK-OV-3): < 100 µM
- GI50 (NCI/ADR-RES): 56.5 µM
- GI50 (OVCAR-3): 65.7 µM
- GI50 (CAKI-1): 45.3 µM
- GI50 (HCT-15): 40.9 µM
- GI50 (SR): 12.9 µM
- GI50 (ACHN): 50.1 µM
- GI50 (NCI-H23): 95.6 µM
- GI50 (U-251): 96.1 µM
- GI50 (SK-MEL-2): < 100 µM
- GI50 (KM12): 86.2 µM
- GI50 (EKVX): 84 µM
- GI50 (SK-MEL-28): 56.3 µM
- GI50 (HOP-92): 17.3 µM
- GI50 (OVCAR-4): 57.8 µM
- GI50 (RPMI-8226): 16.1 µM
- GI50 (SN12C): < 100 µM
- GI50 (BT-549): 28.8 µM
- GI50 (PC-3): < 100 µM
- GI50 (NCI-H322M): < 100 µM
- GI50 (SK-MEL-5): 39.7 µM
- GI50 (COLO 205): < 100 µM
- GI50 (M14): 74.7 µM
- GI50 (TK-10): < 100 µM
- GI50 (UACC-257): 71.7 µM
- GI50 (DU-145): 62.3 µM
- GI50 (SF-295): 54.8 µM
- GI50 (A498): 31.4 µM
- GI50 (HT-29): 74.6 µM
- GI50 (Malme-3M): < 100 µM
- GI50 (OVCAR-5): < 100 µM
- GI50 (A549): 48.5 µM
- GI50 (MDA-MB-231): 98.8 µM
- GI50 (MOLT-4): 32.7 µM
- GI50 (NCI-H460): 33.4 µM
- GI50 (NCI-H226): 98.5 µM
- GI50 (SW-620): 38.3 µM
- GI50 (LOX IMVI): 49.3 µM
- GI50 (MCF7): 60 µM
- GI50 (HOP-62): 51 µM
- GI50 (SF-539): 31.4 µM
- GI50 (MDA-MB-435): 54.9 µM
- GI50 [1]: 73 µM
- GI50 (T47D): 68.7 µM
- GI50 (IGROV-1): 7.7 µM
- GI50 (K562): < 100 µM
- GI50 (OVCAR-8): 44.2 µM
- GI50 (SF-268): 36.2 µM
- GI50 (HCT-116): 34.8 µM
- GI50 (NCI-H522): 55.1 µM
- GI50 (UACC-62): 43.9 µM
- GI50 (HCC 2998): 95.8 µM

Compound: O=C(Nc1ccc(Cc2ccccc2)cc1)Nc1nn(C(=O)Nc2ccc(Cc3ccccc3)cc2)c2ccccc12
- GI50 (SNB-19): > 100 µM
- GI50 (HL-60(TB)): > 100 µM
- GI50 (RXF 393): 30.4 µM
- GI50 (UO-31): > 100 µM
- GI50 (786-0): > 100 µM
- GI50 (SK-OV-3): > 100 µM
- GI50 (NCI/ADR-RES): > 100 µM
- GI50 (OVCAR-3): > 100 µM
- GI50 (CAKI-1): > 100 µM
- GI50 (HCT-15): > 100 µM
- GI50 (SR): 16.3 µM
- GI50 (ACHN): > 100 µM
- GI50 (NCI-H23): > 100 µM
- GI50 (U-251): 70.2 µM
- GI50 (SK-MEL-2): > 100 µM
- GI50 (KM12): > 100 µM
- GI50 (EKVX): > 100 µM
- GI50 (SK-MEL-28): > 100 µM
- GI50 (HOP-92): 18 µM
- GI50 (OVCAR-4): > 100 µM
- GI50 (RPMI-8226): > 100 µM
- GI50 (SN12C): > 100 µM
- GI50 (BT-549): > 100 µM
- GI50 (PC-3): > 100 µM
- GI50 (NCI-H322M): > 100 µM
- GI50 (SK-MEL-5): > 100 µM
- GI50 (COLO 205): > 100 µM
- GI50 (M14): > 100 µM
- GI50 (TK-10): > 100 µM
- GI50 (UACC-257): > 100 µM
- GI50 (DU-145): 80 µM
- GI50 (SF-295): > 100 µM
- GI50 (A498): 82.4 µM
- GI50 (HT-29): > 100 µM
- GI50 (Malme-3M): > 100 µM
- GI50 (OVCAR-5): > 100 µM
- GI50 (A549): > 100 µM
- GI50 (MDA-MB-231): 47.1 µM
- GI50 (MOLT-4): 63.2 µM
- GI50 (NCI-H460): > 100 µM
- GI50 (NCI-H226): > 100 µM
- GI50 (SNB-75): 33.8 µM
- GI50 (SW-620): > 100 µM
- GI50 (LOX IMVI): 71 µM
- GI50 (MCF7): > 100 µM
- GI50 (HOP-62): 59.7 µM
- GI50 (SF-539): > 100 µM
- GI50 (MDA-MB-435): > 100 µM
- GI50 [1]: 74.2 µM
- GI50 (T47D): > 100 µM
- GI50 (IGROV-1): > 100 µM
- GI50 (K562): 40.5 µM
- GI50 (OVCAR-8): > 100 µM
- GI50 (SF-268): 75.6 µM
- GI50 (HCT-116): > 100 µM
- GI50 (NCI-H522): > 100 µM
- GI50 (UACC-62): 41.6 µM
- GI50 (HCC 2998): > 100 µM
